Assays:
RAW264.7 cells [1] = experiment: Proinflammatory cytokine secretion inhibition, LPS-stimulated macrophage cells (ELISA); assay type: cell-based, mouse; details: MHP1 30, 50 or 100 μg/ml, LPS 2 ng/ml, 24 hours
Description: RAW264.7 cells (mouse-derived macrophage cell line) were cultured in a DMEM medium (+4% FBS) containing MHP1 (final concentration: 30, 50, or 100 μg/ml) and LPS (final concentration: 2 ng/ml) for 24 hours by a standard method. After culture, the concentrations of IL-6 and TNFα in the medium were measured by the ELISA method. The results are shown in FIG. 3 (IL-6) and FIG. 4 (TNFα).

MG6 cells [2] = experiment: Stability of RANKL peptide: activity after storage in water; assay type: cell-based, mouse; details: 2 mg/ml in water, 4° C., 208 days
Description: (§1) MG6 cells (mouse-derived microglial cell line) were cultured in a DMEM medium (+4% FBS) containing MHP1 or MHP2 (final concentration: 50 or 100 μg/ml), and LPS (final concentration: 2 ng/ml) for 24 hours by a standard method. After culture, the concentrations of IL-6 and TNFα in the medium were measured by the ELISA method. In the Examples of the present application, the ELISA method was performed using a kit (Quantikine ELISA Mouse TNF-α or Quantikine ELISA Mouse IL-6, produced by R&D Systems). The results are shown in FIG. 1 (IL-6) and FIG. 2 (TNFα).
MHP1 was dissolved in water to a concentration of 2 mg/ml, and stored at 4° C. for 208 days. Thereafter, the proinflammatory cytokine secretion-inhibiting effect of this MHP1 was examined in the same manner as in Example 2, except that the final concentration of MHP1 was set to 100 μg/ml.

RAW264.7 cells [3] = experiment: Osteoclast-related mRNA expression (NFATc1, ACP5) by real-time RT-PCR; assay type: cell-based, mouse; details: MHP1 100 μg/ml, 3 days, FIG. 12A, 12B
Description: It has recently been reported that the administration of RANKL protein to mice induces the activation of osteoclasts. Accordingly, the influence of the RANKL peptide on osteoclasts was examined. The specific examination procedures were as follows. MHP1 (final concentration: 100 μg/ml) or RANKL protein (final concentration: 10 ng/ml) was added to a medium (DMEM medium (+4% FBS)) in which RAW264.7 cells were cultured, and the cells were collected after 10 minutes and 3 days.
For the samples collected after 10 minutes, nuclear proteins of the cells were extracted using the Nuclear Extract Kit (Active Motif), and the degree of NFκB (p65) activation was measured by the TransAM NFkB p65 Kit (Active Motif). On the other hand, for the samples collected after 3 days, the mRNA expression levels of NFATc1 and ACP5 were analyzed by real-time RT-PCR.

[4] = system: cerebral infarction model mice; experiment: Osteoclasts after cerebral infarction in vivo (TRAP staining of radius); design: species or system mouse; details: 300 μG i.v. then 336 μg s.c.; radius distal portion, paralyzed side, 48 hours; FIG. 24
Description: Cerebral infarction models were produced in the same manner as in Example 10. Four hours after the production of the cerebral infarction models, 300 μG/150 μL of MHP1 administration solution was administered through the cervical vein. Thereafter, 336 μg was continuously administered by subcutaneous injection using an Alzet pump for 21 hours. Forty-eight hours after the production of the cerebral infarction models, the radius distal portion of the left hand (paralyzed side) was stained with TRAP, and the ratio of the stained region (osteoclast surface) relative to the bone surface was calculated based on the obtained staining images.

[5] = system: RANK knockdown RAW264.7 cells; experiment: RANK dependency: cytokine secretion in RANK knockdown cells; assay type: cell-based, mouse; details: for secretion of IL-6: FIG. 10; for secretion of TNFα: FIG. 11
Description: RAW264.7 cells were suspended in a DMEM medium (+10% FBS), seeded on a 24-well plate, and cultured at 37° C. at a CO2 concentration of 5%. To 100 μl of serum-free DMEM medium, 37.5 ng (final concentration: 5 nM) of siRNA against RANK (a double strand of the sequence represented by SEQ ID NO: 17 and the sequence represented by SEQ ID NO: 18, produced by GeneDesign) or 37.5 ng (final concentration: 5 nM) of control siRNA (a double strand of the sequence represented by SEQ ID NO: 19 and the sequence represented by SEQ ID NO: 20, produced by GeneDesign), and 3 μl of HiPerFect Transfection Reagent (QIAGEN) were added, and the resultant was allowed to stand at room temperature for 10 minutes. This was added to the RAW264.7 cell culture medium. After culture at 37° C. at a CO^2 concentration of 5% for 24 hours, the cells were collected. A protein extract was obtained from the cells by a standard method, and RANK in this extract was detected at a dilution concentration of 1/100 by the Western blotting method (anti-RANK antibody: anti-mRANK (Cat. No. AF692), produced by R&D Systems). […] FIG. 9 confirmed that RANK was knocked down by siRNA against RANK (comparison between lane 2 and lane 3).
MHP1 and LPS were made to act on RANK knockdown cells, as in Example 3, and the concentrations of IL-6 and TNFα in the medium were measured by the ELISA method. FIGS. 10 and 11 show the results.

MG6 cells [6] = experiment: Proinflammatory cytokine secretion inhibition, LPS-stimulated microglial cells (ELISA); assay type: cell-based, mouse; details: MG6 cells, peptide 50 or 100 μg/ml, LPS 2 ng/ml, 24 hours
Description: as §1
The proinflammatory cytokine secretion-inhibiting effect was examined in the same as in Example 2, except that the final concentration of MHP1 was set to 100 μg/ml, and that RANKL full-length protein was used at a final concentration of 10 ng/ml or 100 ng/ml as the comparison target.

MG6 cells [7] = experiment: M1 shift of microglial cells by LPS (FACS); assay type: cell-based, mouse; details: MHP1 100 μg/ml, LPS 2 ng/ml, 24 hours; FIG. 8
Description: MG6 cells (mouse-derived microglial cell line) were cultured in a DMEM medium (+4% FBS) containing MHP1 (final concentration: 100 μg/ml) or RANKL protein (Recombinant Murin sRANKL Ligand (Cat No. 315-11): produced by Peprotech) (final concentration: 10 ng/ml), and LPS (final concentration: 2 ng/ml) for 24 hours by a standard method. After culture, the cells were washed with PBS, and Fc receptor blocking was performed using mouse IgG. Thereafter, F4/80-FITC (microglia marker antibody) and CD206-APC (M2 marker antibody) were added, and reacted at 4° C. for 30 minutes in a dark place. After the reaction, the cells were washed with PBS, and the percentage of microglia marker-positive and M2 marker-positive (M2 state) cells, and the percentage of microglia marker-positive and M2 marker-negative (M1 state) cells were measured by FACS analysis (FACSCanto II, produced by BD Biosciences).

[8] = RANK knockdown cells (siRNA against RANK)
[9] = control siRNA-introduced RAW264.7 cells

Sequence: LMVYVVKTSIKIPSSHNLMKGGSTKNWSGN (listed as Mus musculus) [MHP1]
- increase in the amount of IL-6 secretion by LPS (RAW264.7 cells [1]; FIG. 3): suppressed
- increase in the amount of TNFα secretion by LPS (RAW264.7 cells [1]; FIG. 4): suppressed
- stability (MG6 cells [2]): high
- proinflammatory cytokine secretion-inhibiting effect after long-term storage (MG6 cells [2]; tested at 100 μg/ml on MG6 cells, FIG. 18): exhibited a proinflammatory cytokine secretion-inhibiting effect
- expression of osteoclast-related mRNA (NFATc1, ACP5) (RAW264.7 cells [3]): did not promote
- increase in the number of TRAP-positive osteoclasts on the bone ridge due to cerebral infarction [4]: suppressed
- secretion of IL-6 [5, 8]: not inhibited
- secretion of TNFα [5, 8]: not inhibited
- secretion of IL-6 [5, 9]: inhibited
- secretion of TNFα [5, 9]: inhibited
- increase in the amount of IL-6 secretion by LPS (MG6 cells [6]; FIG. 1): suppressed
- increase in the amount of TNFα secretion by LPS (MG6 cells [6]; FIG. 2): suppressed
- M1 shift caused by LPS (MG6 cells [7]): suppressed
